For one experiment, the target named is T1, CXCR4 T117A (Homo sapiens, UniProt P61073, T117A).
T1 construct: expressed in transfected cells
Nature of the experiment: Competitive binding to CXCR4 mutant T117A (12G5, CHO cells). The following applies: TM3, class of reduction vs wild-type CXCR4, 12G5 competition, averages of at least three independent experiments. Here is the method: (§1) Plasmid pcDNA3-CXCR4 and mutated pcDNA3-CXCR4 were extracted and transfected into CHO cells using Lipofectamine 2000 according to the manufacturer’s guidelines. The selective medium containing G418 at a concentration of 1.2 mg/ml was applied to isolate stably transfected cells. CHO cells expressing wild-type CXCR4 and mutant CXCR4 were obtained using fluorescence-activated cell sorting (FACS).
(§2) All of the CXCR4 mutants were prepared using PCR technology. Briefly, pairs of asymmetrical primers containing the desired amino acid mutations (Supplementary Tables S1 and S2), each complementary to opposite strands of the pcDNA3–CXCR4, were designed for amplification by Q5® High-Fidelity DNA polymerase and the generation of mutated constructs. The methylated pcDNA3–CXCR4 templates were digested by DpnI. The mutated pcDNA3–CXCR4 was transformed into competent E. coli TOP10 for long-term storage and amplification.
(§3) The procedure for the CXCR4 competitive binding experiments was published previously. Briefly, CXCR4 antibody 12G5 (250 ng/ml) was incubated with 5 × 10^5 cells and varying concentrations of unlabeled compounds in a final volume of 100 μl of assay buffer (PBS with 0.5% BSA and 0.05% NaN3) in 96-well plates for 40 min on ice, after being washed with assay buffer once. The cells were incubated with FITC-conjugated second antibody IgG for 30 min on ice, then washed with assay buffer three times. The fluorescence intensity was measured for excitation at 485 nm and emission at 535 nm using multimode plate reader (PerkinElmer). The IC50 values were calculated using graphpad Prism 7. Experiments were performed at least three times.

A further experiment concerns the target T2, CXCR4 W195A (Homo sapiens, UniProt P61073, W195A).
T2 construct: expressed in transfected cells
Briefly: Competitive binding to CXCR4 mutant W195A (12G5, CHO cells). The following applies: TM4, class of reduction vs wild-type CXCR4, 12G5 competition, averages of at least three independent experiments. Here is the method: as §1, §2, §3

Another experiment has as its target T3, CXCR4 H203A (Homo sapiens, UniProt P61073, H203A).
T3 construct: expressed in transfected cells
Briefly: Competitive binding to CXCR4 mutant H203A (12G5, CHO cells). The following applies: TM5, class of reduction vs wild-type CXCR4, 12G5 competition, averages of at least three independent experiments. The method, then:
as §1, §2, §3

For another experiment, the target named is T4, CXCR4 I284A (Homo sapiens, UniProt P61073, I284A).
T4 construct: expressed in transfected cells
T4 sequence (P61073 whole entry I284A): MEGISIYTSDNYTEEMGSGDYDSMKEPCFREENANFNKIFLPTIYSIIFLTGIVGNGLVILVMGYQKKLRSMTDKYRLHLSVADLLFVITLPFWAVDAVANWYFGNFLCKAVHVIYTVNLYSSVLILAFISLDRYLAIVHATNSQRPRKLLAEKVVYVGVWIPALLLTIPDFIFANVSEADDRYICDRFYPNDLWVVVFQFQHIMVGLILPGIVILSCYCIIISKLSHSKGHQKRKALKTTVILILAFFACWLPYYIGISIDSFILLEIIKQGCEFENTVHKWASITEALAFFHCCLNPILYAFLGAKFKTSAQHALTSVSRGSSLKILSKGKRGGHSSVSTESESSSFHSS
Nature of the experiment: Competitive binding to CXCR4 mutant I284A (12G5, CHO cells). The following applies: TM7, class of reduction vs wild-type CXCR4, 12G5 competition, averages of at least three independent experiments. The method, then: as §1, §2, §3

A further experiment has as its target T5, CXCR4 R30A (Homo sapiens, UniProt P61073, R30A).
T5 construct: expressed in transfected cells
Briefly: Competitive binding to CXCR4 mutant R30A (12G5, CHO cells). The arrangement: key to the marks not given beside the values. The following applies: TM1, class of reduction vs wild-type CXCR4, 12G5 competition, averages of at least three independent experiments. Here is the method:
as §1, §2, §3

A further experiment addresses T6, CXCR4 H281A (Homo sapiens, UniProt P61073, H281A).
T6 construct: expressed in transfected cells
Nature of the experiment: Competitive binding to CXCR4 mutant H281A (12G5, CHO cells). Particulars: TM7, class of reduction vs wild-type CXCR4, 12G5 competition, averages of at least three independent experiments. The method, then: as §1, §2, §3

The target in another experiment is T7, CXCR4 D193A (Homo sapiens, UniProt P61073, D193A).
T7 construct: expressed in transfected cells
T7 sequence (P61073 whole entry D193A): as the sequence (P61073 whole entry I284A) above, with D193A, A284I counted along it
Briefly: Competitive binding to CXCR4 mutant D193A (12G5, CHO cells). The following applies: TM4, class of reduction vs wild-type CXCR4, 12G5 competition, averages of at least three independent experiments. Here is the method: as §1, §2, §3

A further experiment has as its target T8, CXCR4 H113A (Homo sapiens, UniProt P61073, H113A).
T8 construct: expressed in transfected cells
Briefly: Competitive binding to CXCR4 mutant H113A (12G5, CHO cells). Particulars: TM3, class of reduction vs wild-type CXCR4, 12G5 competition, averages of at least three independent experiments. Here is the method:
as §1, §2, §3

Another experiment addresses T9, CXCR4 W161A (Homo sapiens, UniProt P61073, W161A).
T9 construct: expressed in transfected cells
Nature of the experiment: Competitive binding to CXCR4 mutant W161A (12G5, CHO cells). The following applies: TM4, class of reduction vs wild-type CXCR4, 12G5 competition, averages of at least three independent experiments. Here is the method: as §1, §2, §3

The target in the next experiment is T10, CXCR4 V112A (Homo sapiens, UniProt P61073, V112A).
T10 construct: expressed in transfected cells
T10 sequence (P61073 whole entry V112A): as the sequence (P61073 whole entry I284A) above, with V112A, A284I counted along it
Briefly: Competitive binding to CXCR4 mutant V112A (12G5, CHO cells). Particulars: TM3, class of reduction vs wild-type CXCR4, 12G5 competition, averages of at least three independent experiments. The method, then:
as §1, §2, §3

Another experiment has as its target T11, CXCR4 Y255A (Homo sapiens, UniProt P61073, Y255A).
T11 construct: expressed in transfected cells
Briefly: Competitive binding to CXCR4 mutant Y255A (12G5, CHO cells). Particulars: TM6, class of reduction vs wild-type CXCR4, 12G5 competition, averages of at least three independent experiments. Here is the method:
as §1, §2, §3

The target in another experiment is T12, CXCR4 Y256A (Homo sapiens, UniProt P61073, Y256A).
T12 construct: expressed in transfected cells
T12 sequence (P61073 whole entry Y256A): as the sequence (P61073 whole entry I284A) above, with Y256A, A284I counted along it
Nature of the experiment: Competitive binding to CXCR4 mutant Y256A (12G5, CHO cells). Particulars: TM6, class of reduction vs wild-type CXCR4, 12G5 competition, averages of at least three independent experiments. The method, then: as §1, §2, §3

Another experiment deals with CXCR4 (Homo sapiens, UniProt P61073). Briefly: Competitive CXCR4 binding assay (12G5 antibody probe), wild-type CXCR4 transfected CHO cells. The arrangement: expressed in transfected cells; Competitive receptor binding activity, wild-type CXCR4 (WT): key to the marks not given beside the values. The following applies: class relative to wild-type; 12G5 competition, stably transfected CHO cells; averages of at least three independent experiments. The method, then: The CXCR4-specific antibody, 12G5 was used as a probe for the competitive CXCR4 binding assay to evaluate the binding activity of CXCR4 antagonists.
Sequence of CXCR4 (P61073 whole entry): as the sequence (P61073 whole entry I284A) above, with A284I counted along it
Figure 1 Competitive CXCR4 binding curves of eleven CXCR4 antagonists The CXCR4 transfected CHO cells were incubated with different concentrations of antagonists and 250 ng/ml 12G5 antibody. The CXCR4-binding 12G5 antibody was recognized by FITC-conjugated anti-IgG second antibody. The cells treated with only second antibody were used as a negative control (0%) while cells treated with both 12G5 antibody and second antibody were used as a positive control (100%). Cells treated with CXCR4 antagonists were calculated in percentage relative to the positive and negative controls. The data were averages of at least three independent experiments and shown as mean ± standard error of the mean (S.E.M.).
as §3

In another experiment the target is T13, CXCR4 W252A (Homo sapiens, UniProt P61073, W252A).
T13 construct: expressed in transfected cells
T13 sequence (P61073 whole entry W252A): as the sequence (P61073 whole entry I284A) above, with W252A, A284I counted along it
Nature of the experiment: Competitive binding to CXCR4 mutant W252A (12G5, CHO cells). The following applies: TM6, class of reduction vs wild-type CXCR4, 12G5 competition, averages of at least three independent experiments. The method, then: as §1, §2, §3

Positions of bridges follow the written chain, without caps; N, C: chain ends. Non-standard residues stand in square brackets, D forms with d. Chains are numbered I, II in the order given. No end group written: not given here.

T8 sequence (P61073 whole entry H113A): as the sequence (P61073 whole entry I284A) above, with H113A, A284I counted along it
T9 sequence (P61073 whole entry W161A): as the sequence (P61073 whole entry I284A) above, with W161A, A284I counted along it
T5 sequence (P61073 whole entry R30A): as the sequence (P61073 whole entry I284A) above, with R30A, A284I counted along it
T2 sequence (P61073 whole entry W195A): as the sequence (P61073 whole entry I284A) above, with W195A, A284I counted along it
T3 sequence (P61073 whole entry H203A): as the sequence (P61073 whole entry I284A) above, with H203A, A284I counted along it
T11 sequence (P61073 whole entry Y255A): as the sequence (P61073 whole entry I284A) above, with Y255A, A284I counted along it
T1 sequence (P61073 whole entry T117A): as the sequence (P61073 whole entry I284A) above, with T117A, A284I counted along it
T6 sequence (P61073 whole entry H281A): as the sequence (P61073 whole entry I284A) above, with H281A, A284I counted along it

Turning to “I: [dL]G[dA][dS][dW][dH][dR][dP][dD][dK][dC][dC][dL]G[dY][dQ][dK][dR][dP][dL][dP] / II: [dL]G[dA][dS][dW][dH][dR][dP][dD][dK][dC][dC][dL]G[dY][dQ][dK][dR][dP][dL][dP] (disulfide I:11-II:11, I:12-II:12) [DV1 dimer]”, the “Competitive receptor binding activity, CXCR4 T117A” value on CXCR4 T117A is “++ (10–29% reduction compared with wild-type CXCR4)”. In addition, on CXCR4 W195A, the “Competitive receptor binding activity, CXCR4 W195A” value is “+++”. The “Competitive receptor binding activity, CXCR4 H203A” value at CXCR4 H203A is reported as “++ (10–29% reduction compared with wild-type CXCR4)”. The “Competitive receptor binding activity, CXCR4 I284A” value on CXCR4 I284A is given as “+++”. Also, at CXCR4 R30A, the “Competitive receptor binding activity, CXCR4 R30A” value is on record as “+++”. Moreover, the “Competitive receptor binding activity, CXCR4 H281A” value at CXCR4 H281A is “++ (10–29% reduction compared with wild-type CXCR4)”. The “Competitive receptor binding activity, CXCR4 D193A” value on CXCR4 D193A was “++ (10–29% reduction compared with wild-type CXCR4)”. On CXCR4 H113A, the “Competitive receptor binding activity, CXCR4 H113A” value is on record as “+ (30–60% reduction compared with wild-type CXCR4)”. In addition, the “Competitive receptor binding activity, CXCR4 W161A” value at CXCR4 W161A was “+++”. For the same substance, the “Competitive receptor binding activity, CXCR4 V112A” value at CXCR4 V112A is listed as “+++”. On CXCR4 Y255A, the “Competitive receptor binding activity, CXCR4 Y255A” value is on record as “+++”. Besides, on CXCR4 Y256A, the “Competitive receptor binding activity, CXCR4 Y256A” value is “+++”. For the same substance, the “Competitive receptor binding activity, wild-type CXCR4 (WT)” value at CXCR4 is given as “+++”. Also, the “Competitive receptor binding activity, CXCR4 W252A” value on CXCR4 W252A is “+++”.

As for “LGASWHRPDKCCLGYQKRPLPQVLLSSWYPTSQLCSKPGVIFLTKRGRQVCADKSKDWVKKLMQQLPVTAR [vMIP-II, viral macrophage-inflammatory protein-II, full-length natural chemokine antagonist produced by human herpesvirus-8; recombinant from Peprotech]”, the “Competitive receptor binding activity, CXCR4 T117A” value on CXCR4 T117A is given as “+++”. Besides, at CXCR4 W195A, the “Competitive receptor binding activity, CXCR4 W195A” value is on record as “++ (10–29% reduction compared with wild-type CXCR4)”. In addition, the “Competitive receptor binding activity, CXCR4 H203A” value on CXCR4 H203A is on record as “+++”. At CXCR4 I284A, the “Competitive receptor binding activity, CXCR4 I284A” value is on record as “+++”. In addition, on CXCR4 R30A, the “Competitive receptor binding activity, CXCR4 R30A” value was “+++”. Moreover, the “Competitive receptor binding activity, CXCR4 H281A” value on CXCR4 H281A was “+++”. The “Competitive receptor binding activity, CXCR4 D193A” value at CXCR4 D193A was “++ (10–29% reduction compared with wild-type CXCR4)”. Also, the “Competitive receptor binding activity, CXCR4 H113A” value on CXCR4 H113A is on record as “+++”. Also, the “Competitive receptor binding activity, CXCR4 W161A” value on CXCR4 W161A is “+++”. In addition, the “Competitive receptor binding activity, CXCR4 V112A” value on CXCR4 V112A is “+++”. The “Competitive receptor binding activity, CXCR4 Y255A” value on CXCR4 Y255A is “+++”. In addition, the “Competitive receptor binding activity, CXCR4 Y256A” value on CXCR4 Y256A is “+++”. Further, the “Competitive receptor binding activity, wild-type CXCR4 (WT)” value at CXCR4 is “+++”. For the same substance, the “Competitive receptor binding activity, CXCR4 W252A” value on CXCR4 W252A is recorded as “+++”.

(Values after publication PMC10987480, “Biological and mutational analyses of CXCR4–antagonist interactions and design of new antagonistic analogs” (Bioscience Reports, 2023).)
